Experimental findings from patent publication US20130225641A1, “ANTICANCER COMPOUNDS AND PREPARATION METHODS THEREOF” (priority 2010, published 2013) are described below.

One data set deals with HT29. Put plainly: MTT cytotoxicity, HT29. Format: cell-based. Conditions: Homo sapiens, HT-29, HT29, Colonic, 72 hrs, read-out: LC50 (the source's name). On the procedure:
(§1) The cytotoxicity of ZTP and ZTQ was analyzed by using human tumor cell lines. Human tumor cell lines were purchased from ATCC and NCI, and cultured in DMEM medium containing 10% FBS at 37° C. in 5% CO2 in an incubator. The cells grown to confluence were used for cytotoxicity analysis. The cells were digested with trypsin, washed with the culture medium, and then counted. 33 tumor cell lines were cultured. The cells were seeded at a density of 3000-6000 cells/well in a 96-well plate and incubated for 16-24 hrs. Then, various concentrations of ZTP or ZTQ dissolved in DMSO were added, and cultured for 72 hrs. The drug-treated cells and control cells were analyzed by MTT.

Data set [1] is described as follows: Pharmacokinetic study in mice. The format is in vivo. Particulars: both sexes, mouse, po, BALB/c mice, single dose of 100 mg/kg orally by gavage, plasma, Mean +/− SD; for half-life: read-out: T½ (converted). The protocol: BALB/c mice (2 males and 2 females) of 8 weeks old were administered with the compounds ZTP and ZTQ (formulated with 15% Captsol or a carrier) at a single dose of 100 mg/kg. 0.5, 1, 3, 6, 12, 24, 48, and 72 hrs after administration, blood was taken from ophthalmic vein and plasma was prepared therefrom, to determine the plasma concentrations of ZTP and ZTQ. The pharmacokinetic parameters of the compounds ZTP and ZTQ given orally by gavage in the 4 mice are summarized as below (Tables 2 and 3): […]

For another data set, the system named is MDA-MB-231. Put plainly: MTT cytotoxicity, MDA-MB-231. Conditions: Homo sapiens, MDA-MB-231, Breast, 72 hrs, read-out: LC50 (the source's name). Format: cell-based. On the procedure: as §1
In another data set the test system is CCL-247. Description: MTT cytotoxicity, CCL-247. Format: cell-based. Particulars: Homo sapiens, CCL-247, Colonic, 72 hrs, read-out: LC50 (the source's name). On the procedure: as §1
A further data set concerns VEGFR protein kinase. Put plainly: Inhibition of VEGFR protein kinase activity (phosphorylated VEGFR, western blotting) in HUMEC cells. The format is cell-based, human. Conditions: 1 hour treatment, phosphorylated VEGFR level, read-out: median inhibitory concentration (IC50) for inhibiting the activity of VEGFR protein kinase. An excerpt:
VEGFR is a vascular endothelial growth factor receptor regulating the growth, migration, and differentiation of vascular endothelial cells, and determining the start of angiogenesis of tumors. After being stimulated by vascular endothelial cell growth factors, VEGFR forms a dimer, activates its kinase, and makes themselves phosphorylated. The level of the activity of VEGFR protein kinase is detected according to the phosphorylated degree of VEGFR. In this test, we used human microvascular endothelial cells (HUMECs) to determine whether ZTP and ZTQ can inhibit the activity of VEGFR protein kinase. HUMEC cells were subjected to adherent growth in DMEM medium (GIBCO-BRL) containing 10% bovine calf serum at 37° C. in 5% CO2. The cells were treated with various concentrations of ZTP and ZTQ (0, 10 ng/ml, 100 ng/ml, 500 ng/ml, 1 μg/ml, and 10 μg/ml), and the cell proteins were collected 1 hour after treatment. The protein content was determined through Bradford method, and then the level of phosphorylated VEGFR was assayed through western blotting. Immunoblotting experiment: denatured polyacrylamide gel was used for separation of the proteins with a sample load of 60 μg of total proteins. The proteins were electro-transferred onto a PVDF membrane and blocked. […] The membrane was exposed to an X-ray film, and the results were analyzed by a gel imaging system. […]

In another data set the test system is HCT-116. Put plainly: MTT cytotoxicity, HCT-116. The format is cell-based. Conditions: Homo sapiens, HCT-116, Colonic, 72 hrs, read-out: LC50 (the source's name). On the procedure: as §1
A further data set concerns U-251. Description: MTT cytotoxicity, U-251. The format is cell-based. Conditions: Homo sapiens, U-251, Glioblastoma, 72 hrs, read-out: LC50 (the source's name). The protocol:
as §1

For data set [2], the system named is human liver cancer cells (HepG3B). Description: Transplantation model of human liver cancer (HepG3B) in nude mice. Format: in vivo, nude mice (nu/nu). Particulars: HepG3B subcutaneous in nude mice; oral daily 5 days/week, 3 weeks; ZTP 30 mg/kg, ZTQ 60 mg/kg; lower = stronger. On the procedure: T-cell deficient nude mice (nu/nu) of 6 weeks old were purchased from Charles River Laboratory, and housed and treated in a sterile environment following Institutional Animal Care & Use Committee Program. 48 mice were respectively subcutaneously inoculated on ribbed belly with 5×10^6 human liver cancer cells (HepG3B), human lung caner cells (NCI-H23), and human colon cancer cells (HCT-116) suspended in 0.2 ml HBSS/matrigel (50:50, V/V). When the tumor grew to have an average diameter of 7-8 mm and a volume of about 100-200 mm^3, 24 mice were picked up, and assigned to treatment groups (16 animals/2 groups), and a control group (8 animals). The 2 treatment groups were administered with the compounds ZTP and ZTQ dissolved in 15% Captsol respectively at a dose of 30 mg/kg and 60 mg/kg, and the control group only received an excipient (15% Captsol).
The same number of mice of each type was assigned to the control group and the treatment groups with the compounds ZTP and ZTQ respectively.
The dose schedule of the test compounds in the tumor transplanted nude mice was as follows: the compounds ZTP and ZTQ dissolved in 15% Captsol were daily orally administered as a 200 μl solution containing 0.75 mg of ZTP and 1.5 mg of ZTQ for 5 days/week over 3 consecutive weeks, followed by one-week break; and the control group was only administered with 200 μl of the placebo (15% Captsol) for 3 weeks, followed by 1 week of break. The two groups of animals were housed separately, and allowed to free access to food.
Evaluation of antitumor effect: the tumor size was measured every 3 or 4 days. The tumor volume was calculated using the equation below: […], in which a denotes the width (the shorter diameter), and b denotes the length (the longer diameter). Relative tumor volume (RTV) of each tumor refers to the ratio of the volume at a specified time to that at the beginning of the treatment. The average RTV for each treatment group was calculated. The antitumor activity was determined by calculating the tumor growth inhibition using a formula below. […]

Another data set has as its system NCI-H23. Description: MTT cytotoxicity, NCI-H23. Format: cell-based. Particulars: Homo sapiens, NCI-H23, Lung, 72 hrs, read-out: LC50 (the source's name). The protocol: as §1

Turning to `CNC(=O)c1cc(Oc2ccc(NC(=S)Nc3ccc(Cl)c(C(F)(F)F)c3)cc2)ccn1` [ZTP, N-[4-chloro-3-(trifluoromethyl)phenyl]-[4-(N-methyl-formamide)(4-pyridyloxy)phenyl]-thiourea], the CC50 in the data set with HT29 was 1190 nM; with MDA-MB-231, 1190 nM; in the data set on CCL-247, 2410 nM; with HCT-116, 870 nM; in the data set with U-251, 3.67 µM; in the data set on NCI-H23, 890 nM. In data set [1], this compound returned a Cmax of 51 µM. Further, the Tmax in data set [1] stood at 6.4 h. In addition, the half-life in [1] is 246 min. Besides, the IC50 with VEGFR protein kinase was determined as 21 nM. For the same compound, the “TGI (T/C×100)” value in data set [2] was 13%.

As for `CNC(=O)c1cc(Sc2ccc(NC(=S)Nc3ccc(Cl)c(C(F)(F)F)c3)cc2)ccn1` [ZTQ, N-[4-chloro-3-(trifluoromethyl)phenyl]-[4-(N-methyl-formamide)(4-pyridylthio)phenyl]-thiourea], the CC50 stood at 920 nM in the data set with HT29; 1030 nM with MDA-MB-231; 1700 nM in the data set with CCL-247; 760 nM with HCT-116; 2.5 µM in the data set on U-251; 710 nM with NCI-H23. The peak concentration (Cmax) in data set [1] was determined as 52 µM. In addition, the Tmax in data set [1] stood at 6.6 h. Further, in [1], the half-life is 252 min. Also, the IC50 in the data set on VEGFR protein kinase was 9 nM. Besides, the “TGI (T/C×100)” value in data set [2] worked out at 1.75%.
